Laboratory results from article PMC7198766, “Structure-Activity Studies on the Hypertrehalosemic Hormone II of the Stick Insect Carausius morosus (Phasmatodea): Carbohydrate-Mobilization and Cardio-Stimulatory Activities” (Frontiers in Physiology, 2020).
Values joined by “and” are separate entries in the source; they are usually repeats but may differ in a detail not shown here. Equal values may be shown once. Marks after values point to notes of the source that are not given here.

How the values were obtained:
[1] = system: ligated 6th instar Indian stick insects (Carausius morosus); experiment: Carbohydrate-mobilization (hypertrehalosemic) in vivo assay; settings: for % Activity relative to the effect of Carmo-HrTH-II (metabolic): 20 pmol peptide injected, carbohydrate increase relative to Carmo-HrTH-II = 100, NS = no significant increase; for Hemolymph carbohydrates, 90 min: 90 min after injection of 20 pmol peptide in 10 μl; for Hemolymph carbohydrates, 90 min / Hemolymph carbohydrates, Difference: neck-ligated 6th instar nymphs; for Hemolymph carbohydrates, Difference: 90 min minus 0 min, 20 pmol peptide in 10 μl injected; for Hemolymph carbohydrates, 0 min: before injection (0 min), 2 h after neck ligation, group later given 20 pmol peptide in 10 μl, 6th instar nymphs
Experimental: Sixth instar nymphs that were 1–2 days before molting were neck-ligated and used in the hypertrehalosemic in vivo assay as described in detail by [Gäde and Lohr (1982)]. Stock peptide solutions (5 pmol μl^–1) were diluted with distilled water to the desired concentration in 10 μl, which was injected into the stick insect nymphs.
In the first series of experiments, various doses of synthetic Carmo-HrTH-II and corpora cardiaca (CC) extract of C. morosus were used to determine the maximal hypertrehalosemic response of C. morosus. Hemolymph samples were taken from 17 to 18 days old 6th instar nymphs 2 h after they were neck-ligated and then 90 min after either CC extract or synthetic Carmo-HrTH-II was injected. Ligated nymphs injected with distilled water served as controls for handling stress. As depicted in Figures 1A,B, various doses of both Carmo-HrTH-II and CC extract increased the level of carbohydrates in the hemolymph in a dose-dependent manner. A dose of 0.04 pmol of synthetic Carmo-HrTH-II and the equivalent of 0.005 pairs of corpora cardiaca (pCC) were sufficient to give significant increases in hemolymph carbohydrates (p < 0.05). […] Doses of 0.1–0.5 pCC gave an average increase of 5.6 ± 0.6 mg carbohydrates ml^–1 hemolymph (Figure 1B); again, statistical analyses reveal no significant difference between the effect of these doses (p > 0.05).
Based on these pilot experiments, we selected a dose of 20 pmol for testing the analogs of Carmo-HrTH-II since such a dose of our lead compound, Carmo-HrTH-II had achieved maximal hypertrehalosemic activity.

[2] = system: heart of neck-ligated Carausius morosus; experiment: Semi-exposed heart bioassay (heart beat rate); type: in vivo; settings: for % Activity relative to the effect of Carmo-HrTH-II (myotropic) / Heart rate, Difference: 20 pmol peptide in 150 μl; for % Activity relative to the effect of Carmo-HrTH-II (myotropic): heart rate increase relative to Carmo-HrTH-II = 100, NS = no significant increase; for Heart rate, Post-application: after application of 20 pmol peptide in 150 μl saline, average of first four counts; for Heart rate, Post-application / Heart rate, Pre-application: neck-ligated stick insects; for Heart rate, Pre-application: in saline before application, semi-exposed heart; for Heart rate, Difference: post- minus pre-application
Experimental: The semi-exposed heart bioassay was carried out as described ([Marco et al., 2018]) with adult stick insects between 1 and 2 months old that were ligated at the neck. Briefly, a ventral incision of the abdomen exposed the ventral cavity with the internal organs; a few drops of stick insect saline (pH 6.6; 15 mM NaCl, 18 mM KCl, 7.5 mM CaCl2, 2 mM HEPES, 50 mM MgCl2, and 184 mM glucose according to [Ejaz and Lange, 2008]) were added to the exposed part. The semi-isolated heart preparation was viewed with a dissecting microscope (12-fold magnification), and the number of observed heart beats (contractions of the heart muscle) was counted during a fixed period using a manual tally counter and a timer. Once the heart had stabilized, saline was replaced with the test solution. For this the peptide stock solution of 5 pmol μl^–1 was diluted with stick insect saline to the desired concentration and a final volume of 150 μl was used for each test.
Heart rates under normal saline served as controls. The change in heart rate after the application of the test solution was calculated as an average of the first four counts and was compared to the average heart rates counted in saline before the application of the test solution. This comparison of change in heart rates was done for all the peptides tested.

Substance	% Activity relative to the effect of Carmo-HrTH-II (metabolic) [1]	Hemolymph carbohydrates, 90 min [1] [mg/mL]	Hemolymph carbohydrates, Difference [1] [mg/mL]	Hemolymph carbohydrates, 0 min [1] [mg/mL]	% Activity relative to the effect of Carmo-HrTH-II (myotropic) [2]	Heart rate, Post-application [2] [beats min^−1]	Heart rate, Pre-application [2]	Heart rate, Difference [2] [beats min^−1]	% Activity relative to the effect of Carmo-HrTH-II (metabolic) ([1]; listed as Ala^10 analog of Carmo-HrTH-II)
pGlu-Leu-Thr-Phe-Thr-Pro-Asn-Trp-Gly-Thr OH [Carmo-HrTH-II: free C-terminus]	30%	10.4 ± 2.2	1.6 ± 1.6	8.8 ± 2.1	58%	47 ± 3	40 ± 5 beats min^−1	7 ± 3	–
pGlu-Leu-Asn-Phe-Thr-Pro-Asn-Trp-Gly-Ser amide [Phymo-AKH, naturally-occurring AKH decapeptide bioanalog, reference compound]	–	10.5 ± 1.4	0.9 ± 1.7	9.6 ± 1.8	8%	38 ± 4	37 ± 3 beats min^−1	1 ± 1	–
pGlu-Leu-Thr-Phe-Thr-Pro-Asn-Trp*-Gly-Thr amide [Carmo-HrTH-I, endogenous hormone isolated from C. morosus CC; Trp^8 C-mannosylated, reference compound]	91^b %	12.9 ± 1.9	4.9 ± 1.1	8.0 ± 1.6	108^b %	54 ± 2	41 beats min^−1 and 41 ± 4 beats min^−1	13 ± 2	–
pGlu-Leu-Thr-Phe-Thr-Pro-Asn-Ala-Gly-Thr amide [Ala^8-Carmo-HrTH-II]	–	8.3 ± 1.9	-0.1 ± 1.3	8.5 ± 2.1	–	42 ± 4	42 ± 5 beats min^−1	0 ± 2	–
pGlu-Ala-Thr-Phe-Thr-Pro-Asn-Trp-Gly-Thr amide [Ala^2-Carmo-HrTH-II]	100%	16.8 ± 1.7	5.4 ± 1.7	11.4 ± 2.3	–	42 ± 5	42 ± 7 beats min^−1	0 ± 2	–
pGlu-Leu-Thr-Phe-Thr-Pro-Asn-Trp-Gly-Ala amide [Ala^10-Carmo-HrTH-II]	–	12.4 ± 1.6	2.5 ± 1.0	9.9 ± 2.3	–	41 ± 5	41 ± 5 beats min^−1	0 ± 1	about 50%
pGlu-Leu-Thr-Phe-Ala-Pro-Asn-Trp-Gly-Thr amide [Ala^5-Carmo-HrTH-II]	–	10.1 ± 1.3	-0.1 ± 0.1	10.2 ± 1.2	–	40 ± 7	39 ± 7 beats min^−1	1 ± 2	–
pGlu-Leu-Thr-Phe-Thr-Pro-Asn-Trp amide [Peram-CAH-II, naturally-occurring AKH octapeptide bioanalog, reference compound]	30% and 31%	11.0 ± 1.1	1.7 ± 2.0	9.3 ± 1.8	–	–	–	–	–
pGlu-Leu-Thr-Phe-Thr-Pro-Asn-Trp-Ala-Thr amide [Ala^9-Carmo-HrTH-II]	28%	11.0 ± 1.5	1.5 ± 0.9	9.5 ± 1.9	–	38 ± 2	39 ± 2 beats min^−1	−1 ± 1	–
pGlu-Leu-Thr-Phe-Thr-Pro-Asn-Trp-Gly-Ser amide [Phyle-CC, naturally-occurring AKH decapeptide bioanalog, reference compound]	109^b %	14.1 ± 1.7	5.9 ± 1.7	8.2 ± 1.9	67^b %	46 ± 6	38 ± 7 beats min^−1	8 ± 2	–
pGlu-Leu-Thr-Phe-Thr-Pro-Ser-Trp amide [Aedae-AKH, naturally-occurring AKH octapeptide bioanalog, reference compound]	–	8.8 ± 1.2	0.7 ± 1.1	8.1 ± 1.4	8%	43 ± 6	42 ± 6 beats min^−1	1 ± 1	–
pGlu-Leu-Thr-Ala-Thr-Pro-Asn-Trp-Gly-Thr amide [Ala^4-Carmo-HrTH-II]	–	9.1 ± 2.4	0.5 ± 2.3	8.6 ± 2.2	–	41 ± 4	40 ± 4 beats min^−1	1 ± 1	–
pGlu-Leu-Asn-Phe-Thr-Pro-Asn-Trp amide [Pyrap-AKH, naturally-occurring AKH octapeptide bioanalog, reference compound]	–	9.2 ± 1.8	0.5 ± 1.0	8.7 ± 1.8	16%	41 ± 4	39 ± 5 beats min^−1	2 ± 2	–
Leu-Thr-Phe-Thr-Pro-Asn-Trp-Gly-Thr amide	–	9.5 ± 1.5	0.7 ± 1.3	8.8 ± 1.7	58%	46 ± 5	39 ± 6 beats min^−1	7 ± 2	–
pGlu-Leu-Thr-Phe-Thr-Pro-Ala-Trp-Gly-Thr amide [Ala^7-Carmo-HrTH-II]	13%	12.0 ± 2.2	0.7 ± 0.6	11.3 ± 2.0	–	39 ± 4	39 ± 4 beats min^−1	0 ± 1	–
pGlu-Val-Asn-Phe-Thr-Pro-Asn-Trp-Gly-Thr amide [Rommi-CC, naturally-occurring AKH decapeptide bioanalog, reference compound]	48%	10.6 ± 1.6	2.6 ± 1.5	8.0 ± 1.4	150^b %	57 ± 4	39 ± 3 beats min^−1	18 ± 6	–
